Measured values published in patent publication US11787799B2 (priority 2015, dated 2023).

Columns and labels:
[1] = system: Echovirus 11; assay: microbe, parasite or virus in culture; assay type: cell-based; conditions: read-out: EC50 ECHO11
[2] = system: HeLa-RW cells
[3] = system: Coxsackievirus A9; assay: microbe, parasite or virus in culture; assay type: cell-based; conditions: read-out: EC50 COX A9
[4] = system: Enterovirus 71; assay: microbe, parasite or virus in culture; assay type: cell-based; conditions: read-out: EC50 EV71
[5] = system: Poliovirus 3; assay: microbe, parasite or virus in culture; assay type: cell-based; conditions: read-out: EC50 PV3
[6] = system: Echovirus 6; assay: microbe, parasite or virus in culture; assay type: cell-based; conditions: read-out: EC50 ECHO06
[7] = system: Coxsackievirus B3-H3; assay: microbe, parasite or virus in culture; assay type: cell-based; conditions: read-out: EC50 CVB3-H3
[8] = system: Poliovirus 1; assay: microbe, parasite or virus in culture; assay type: cell-based; conditions: read-out: EC50 PV1
[9] = system: LLC cells
[10] = system: Coxsackievirus B5; assay: microbe, parasite or virus in culture; assay type: cell-based; conditions: read-out: EC50 CVB5
[11] = system: Echovirus 9; assay: microbe, parasite or virus in culture; assay type: cell-based; conditions: read-out: EC50 ECHO09
[12] = system: Coxsackievirus B1; assay: microbe, parasite or virus in culture; assay type: cell-based; conditions: read-out: EC50 CVB1
[13] = system: Coxsackievirus B4; assay: microbe, parasite or virus in culture; assay type: cell-based; conditions: read-out: EC50 CVB4
[14] = system: Coxsackievirus B2; assay: microbe, parasite or virus in culture; assay type: cell-based; conditions: read-out: EC50 CVB2
[15] = system: Echovirus 7; assay: microbe, parasite or virus in culture; assay type: cell-based; conditions: read-out: EC50 ECHO07
[16] = system: Enterovirus D68/US/KY/14-18953; assay: Antiviral assay, Enterovirus D68 strain US/KY/14-18953 in RD cells; assay type: cell-based
[17] = system: Echovirus 30; assay: microbe, parasite or virus in culture; assay type: cell-based; conditions: read-out: EC50 ECHO30
[18] = system: RD cells
[19] = system: Enterovirus D68/US/Mo/14-18949; assay: Antiviral assay, Enterovirus D68 strain US/Mo/14-18949 in RD cells; assay type: cell-based
[20] = system: Echovirus 25; assay: microbe, parasite or virus in culture; assay type: cell-based; conditions: read-out: EC50 ECHO25
[21] = system: Enterovirus D68/Fermon; assay: Antiviral assay, Enterovirus D68 strain Fermon in RD cells; assay type: cell-based

SMILES | EC50 [1] [nM] | CC50 [2] [nM] | EC50 [3] [nM] | EC50 [4] [nM] | EC50 [5] [nM] | EC50 [6] [nM] | EC50 [7] [nM] | EC50 [8] [nM] | CC50 [9] [nM] | EC50 [10] [nM] | EC50 [11] [nM] | EC50 [12] [nM] | EC50 [13] [nM] | EC50 [14] [nM] | EC50 [15] [nM] | EC50 [17] [nM] | further results
CC(C)n1ncc2c(C(=O)Nc3ccccc3F)cc(-c3ccccc3)nc21 [JX-002] | 2900 | 37500 | 5000 | 5700 ± 1500 | > 25000 | 4400 ± 600 | 4500 ± 1500 | > 25000 | > 200000 |  |  |  |  |  |  |  | 
CC(C)n1ncc2c(C(=O)Nc3ccccc3F)cc(-c3ccncc3)nc21 [JX-003] | 5300 | 37500 | 7000 ± 800 | > 10000 | > 25000 | 9200 ± 3200 | 5100 ± 100 | > 25000 | 45000 |  |  |  |  |  |  |  | 
CC(C)n1ncc2c(C(=O)Nc3ccccc3F)cc(-c3ccccn3)nc21 [JX-004] | 3800 | > 200000 | 6100 ± 2200 | > 10000 | > 25000 | 7800 ± 1800 | 6900 ± 700 | > 25000 | 100000 |  |  |  |  |  |  |  | 
CC(C)n1ncc2c(C(=O)Nc3ccccc3F)cc(-c3cccnc3)nc21 [JX-005] | 4500 | 37500 | 7800 ± 2600 | > 10000 | > 25000 | 9000 | 7000 ± 2400 | > 25000 | 50000 |  |  |  |  |  |  |  | 
CC(C)n1ncc2c(C(=O)Nc3c(F)cccc3F)cc(-c3cccs3)nc21 [JX-009] | 2800 | > 200000 | 4000 | 3400 ± 700 | > 25000 | 4900 ± 300 | 3200 ± 500 | > 25000 | > 200000 |  |  |  |  |  |  |  | 
CC(C)n1ncc2c(C(=O)Nc3ccccc3F)cc(-c3cncs3)nc21 [JX-010] | 3200 | > 200000 | 3100 | 3700 ± 200 | > 25000 | 4200 ± 300 | 3300 ± 1400 | > 25000 | 100000 |  |  |  |  |  |  |  | 
CC(C)n1ncc2c(C(=O)Nc3cccc(F)c3)cc(-c3cccs3)nc21 [JX-021] |  | > 200000 | 1600 | 2400 ± 800 | > 25000 | 1500 ± 500 | 1300 ± 200 | > 25000 | > 200000 | 2300 | 1200 | 2600 ± 500 | 2600 ± 500 | 2600 ± 500 | 2900 |  | 
CC(C)n1ncc2c(C(=O)Nc3ccccn3)cc(-c3cccs3)nc21 [JX-040] | 500 | > 200000 | 600 | 500 ± 100 | > 10000 | 400 | 600 | > 10000 | > 200000 | 600 |  | 600 | 500 | 600 | 600 | < 400 | EC50 [16]: 270 ± 60 nM; CC50 [18]: > 200000 nM; EC50 [19]: 170 ± 30 nM; EC50 [20]: 600 nM
CC(C)n1ncc2c(C(=O)Nc3ncccn3)cc(-c3cccs3)nc21 [JX-041] | 600 | 37500 | 600 | 500 ± 100 | > 10000 | 400 | 600 | > 10000 | 75000 | 600 |  | 600 | 600 | 600 | 700 | < 400 | EC50 [20]: 600 nM
CC(C)n1ncc2c(C(=S)Nc3ccc(F)cc3)cc(-c3cccs3)nc21 [JX-046] | > 10000 |  | > 10000 | > 10000 |  | > 10000 |  |  | 20000 |  | > 10000 |  |  |  | > 10000 | 6250 | EC50 [20]: > 10000 nM
CC(C)n1ncc2c(C(=O)Nc3cccc(S(=O)(=O)N(C)C)c3)cc(-c3cccs3)nc21 [JX-052] | 600 | 12000 | 800 | 800 ± 100 | > 10000 |  | 1200 | > 10000 | > 200000 | 1200 | 200 | 1200 | 1200 | 1200 | 780 | 400 | EC50 [16]: 530 ± 290 nM; CC50 [18]: > 200000 nM; EC50 [21]: 570 ± 250 nM; EC50 [19]: 310 ± 70 nM
CNS(=O)(=O)c1cccc(NC(=O)c2cc(-c3cccs3)nc3c2cnn3C(C)C)c1 [JX-053] | 600 | 12000 | 800 | 700 ± 100 | > 10000 |  | 600 | > 10000 | 25000 | 600 | 200 | 600 | 600 | 600 | 450 | 600 | 
CC(C)n1ncc2c(C(=O)Nc3cccnc3)cc(-c3cccs3)nc21 [JX-056] | 200 | 25000 | 600 | 500 ± 100 | 10000 |  | 600 | 10000 | > 200000 | 600 | 200 | 600 | 600 | 600 | 450 | 300 | EC50 [16]: 120 nM; CC50 [18]: 25000 nM; EC50 [21]: < 100 nM; EC50 [19]: < 100 nM
CC(C)n1ncc2c(C(=O)Nc3ccccn3)cc(-c3ccsc3)nc21 [JX-057] | 1200 | 18000 |  | 800 | > 10000 |  | 1200 | > 10000 | 25000 | 1200 | 400 | 1200 | 1200 | 1200 |  |  | 
CC(C)n1ncc2c(C(=O)Nc3ncccn3)cc(-c3ccsc3)nc21 [JX-058] | 1300 | 40000 |  | 1200 | > 10000 |  | 1200 | > 10000 | 50000 | 1200 | 600 | 1200 | 1200 | 1200 |  |  | 
CC(C)n1ncc2c(C(=O)Nc3ccncn3)cc(-c3ccsc3)nc21 [JX-059] | 1200 | > 200000 |  | 800 | > 10000 |  | 1200 | > 10000 | > 200000 | 1200 | 400 | 1200 | 1200 | 1200 |  |  | EC50 [16]: 870 ± 310 nM; CC50 [18]: 75000 nM; EC50 [21]: 690 ± 90 nM; EC50 [19]: 570 ± 220 nM
CC(C)n1ncc2c(C(=O)N(C)c3ccccn3)cc(-c3cccs3)nc21 [JX-074] | > 10000 |  | > 10000 | > 10000 | > 10000 | > 10000 | > 10000 | > 10000 |  | > 10000 | > 10000 | > 10000 | > 10000 | > 10000 | > 10000 | > 10000 | EC50 [20]: > 10000 nM
